Results as given in patent publication US6340560B1, “Aminopolycarboxylic acid chelating agent, heavy metal chelate compound thereof, photographic additive and processing method” (Fuji Photo Film Co., Ltd., priority 1996, dated 2002).

Experiment: Example 12: biodegradability, 302 Revised Zahn-Wellens test (OECD Chemical Test Guideline)

Row | biodegradable | biodegradability (in words) | Compound
1 | 70% |  | CN(CCN(C)[C@@H](CC(=O)O)C(=O)O)[C@@H](CC(=O)O)C(=O)O [Compound 32]
2 | 70% |  | CN(CCN(C)[C@@H](CCC(=O)O)C(=O)O)[C@@H](CCC(=O)O)C(=O)O [Compound 45]
3 |  | scarcely biodegradable | O=C(O)CN(CCN(CC(=O)O)CC(=O)O)CC(=O)O [Ethylenediaminetetraacetic acid, reference compound]
